Assay results from US6464839B1, “Beta-elemene, method to prepare the same and uses thereof” (Yuan da International Group Limited, priority 1997, dated 2002).

What was measured:
cerebral neuroglioma = experiment: Cerebral neuroglioma, murine sub-renal capsule model; assay type: in vivo
From the text: (D) Neuroglioma: It was indicated in the pharmacodynamic study of cerebral neuroglioma using murine sub-renal capsule model that the inhibition rate was 50-70%.

[1] = Side effects in animal pharmacodynamic studies (bone marrow, white blood cell count); assay type: in vivo
[2] = Passage through the brain-blood barrier; assay type: in vivo; details: work of the Department of Embryology, Dalian Medical University
[3] = test system: thalamic glioblastoma; brain metastasis of lung cancer; experiment: Treatment of patients with brain tumors with beta-elemene emulsive injection; assay type: in vivo, human
Description: In two instances, patients at the Second Affiliated Hospital of the Dalian Medical University were treated with the beta-elemene composition as an emulsive injection. The medical records were kept at that hospital.
The patient was hospitalized for surgery in July 1995. […] A beta-elemene emulsive injection was employed through 600 ml cervical artery intubation and 400 ml intravenous drip alternately once per day.
Due to the lung metastasis and the age of the patient, surgery was difficult to perform. The patient was hospitalized in mid November 1996.
The patient was treated with beta-elemene as prepared herein. […] In the middle of December 1996 the patient had another CT scan.

[4] = test system: murine Ehrlich ascites carcinoma; details: material with beta-elemene 65%, gamma and delta-elemene 20%, impurities 15%; cited from earlier work
[5] = test system: rat ascitic reticulum cell sarcoma; details: material with beta-elemene 65%, gamma and delta-elemene 20%, impurities 15%; cited from earlier work
[6] = material with beta-elemene 65%, gamma and delta-elemene 20%, impurities 15%; cited from earlier work
S180 solid tumor = experiment: S180 solid tumor, animal pharmacodynamic study; details: injection
S180 ascites cancer = experiment: S180 ascites cancer, animal pharmacodynamic study; details: intra-peritoneal injection
hepatic solid tumor = experiment: Hepatic solid tumor, animal pharmacodynamic study
EAC = EAC ascites carcinoma, animal pharmacodynamic study; details: EAC ascites cancer, intra-peritoneal injection
L1210 leukemia = experiment: Murine leukemia L1210, animal pharmacodynamic study; details: injection
[7] = test system: hepatic ascites carcinoma; experiment: Hepatic ascites carcinoma, animal pharmacodynamic study
[8] = Patient I, thalamic glioblastoma

SMILES: C=CC1(C)CCC(C(=C)C)CC1C(=C)C (stereo not drawn) [beta-elemene, 1-methyl-1-vinyl-2,4-diisoprotenyl-cyclohexane]
- inhibition rate (cerebral neuroglioma): 50-70%
- bone marrow inhibition or reduction of white blood cell count [1]: no measurable bone marrow inhibition or reduction of white blood cell count
- ability to pass through the brain-blood barrier (BBB) [2]: able to pass through the brain-blood barrier (BBB)
- survival with the tumor [3, 8]: 11 months
- tumor size on CT scan [3, 8]: no apparent reduction in tumor size
- growth of the tumor ([3]; Patient I, thalamic glioblastoma, cervical artery intubation and intravenous drip alternately once per day): quickly controlled
- prolongation of the life of the patient ([3]; Patient II, based upon previous experience with patients at that stage of illness): more than 4 months
- tumor size on CT scan ([3]; Patient II, lung cancer with multiple metastasis to the brain, about one month of treatment): The size of the tumor was reduced
- anti-tumor activity [4]: marked anti-tumor activity
- anti-tumor activity [5]: marked anti-tumor activity
- side effects during treatment [6]: Diarrhea and weight loss
- inhibition rate (S180 solid tumor): 33-59%
- life prolongation rate (S180 ascites cancer): 90-321%
- inhibition rate (hepatic solid tumor): 10-30%
- life prolongation rate (EAC): 85-310%
- life prolongation rate (L1210 leukemia): 47-289%
- life prolongation rate [7]: 103-224%
